The test system of this series is rodent carcinogenicity bioassays, tumor incidence. Put plainly: CCRIS carcinogenicity studies. In a few lines:
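Archive of carcinogenicity, mutagenicity, tumor promotion and tumor inhibition results drawn from journals, NCI reports and other sources, expert-reviewed; covers 1985-2011 and is no longer updated.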

Structures are written as SMILES. Calls of active or inactive are those of the source. How the calls were made is not given here.

Regarding `CCc1cc2ccccc2c2ccc3c(c12)[C@@H]1O[C@@H]1[C@H](O)[C@H]3O`, the carcinogen call is “inactive; negative” (Species: MOUSE, Strain/Sex: ICR/FEMALE, Route: INTRAPERITONEAL, Dose: 0, 8 NMOL IN 5 µL DMSO ON D 1, 16 NMOL IN 10 µL ON D 8 AND 32 NMOL IN 20 µL ON D 15 OF LIFE (STUDY DURATION: 35 WK)) and “inactive; negative” (Species: MOUSE, Strain/Sex: ICR/MALE, Route: INTRAPERITONEAL, Dose: 0, 8 NMOL IN 5 µL DMSO ON D 1, 16 NMOL IN 10 µL ON D 8 AND 32 NMOL IN 20 µL ON D 15 OF LIFE (STUDY DURATION: 35 WK)).

For `COC(=O)c1c(Cl)c(Cl)c(C(=O)OC)c(Cl)c1Cl`, the carcinogen call (Species: Mouse, Strain/Sex: CD-1/Female (60/group), Route: Oral, Dose: 0, 100, 1,000, 3,500, 7,500 ppm in diet for 2 yr, Dose: 0, 100, 1,000, 3,500, 7,500 ppm in diet for 2 yr, Tumor Site: Type of Lesion: Liver: Hepatocellular tumors (Significant only at highest dose)) is “active; positive (study details not given in source; purity 96.7%)”; the carcinogen call (Species: Mouse, Strain/Sex: CD-1/Male (60/group), Route: Oral, Dose: 0, 100, 1,000, 3,500, 7,500 ppm in diet for 2 yr, Dose: 0, 100, 1,000, 3,500, 7,500 ppm in diet for 2 yr) was “inactive; negative (study details not given in source; purity 96.7%)”; the carcinogen call (Species: Rat, Strain/Sex: Sprague-Dawley/Female (60/group), Route: Oral, Dose: 0, 1, 10, 50, 500, 1,000 mg/kg/day in diet for 2 yr, Dose: 0, 1, 10, 50, 500, 1,000 mg/kg/day in diet for 2 yr, Tumor Site: Type of Lesion: Thyroid: Follicular cell adenomas. Liver: Hepatocellular tumors) was “active; positive (as evaluated by ca dpr; study details not given in source; purity 97.7”; the carcinogen call (Species: Rat, Strain/Sex: Sprague-Dawley/Male (60/group), Route: Oral, Dose: 0, 1, 10, 50, 500, 1,000 mg/kg/day in diet for 2 yr, Dose: 0, 1, 10, 50, 500, 1,000 mg/kg/day in diet for 2 yr, Tumor Site: Type of Lesion: Thyroid: Follicular cell adenomas) was “active; positive (evaluated as adverse effect by ca dpr; study details not given in sour”.

On to `O=NN1CCCC[C@H]1c1cccnc1`, for which, for the setting “Species: MOUSE, Strain/Sex: STRAIN-A/FEMALE, Route: INTRAPERITONEAL, Dose: 0, 100 UMOL TOTAL DOSE ADMINISTERED IN SUBDOSES 3/WK FOR 7 WK (STUDY DURATION: 37 WK), Tumor Site: Type of Lesion: LUNG: TUMOR”, the carcinogen call is “active; positive”.

Consider `ClCOCCl`, for which the carcinogen call (Species: HUMAN, Route: INHALATION, Tumor Site: Type of Lesion: LUNG: OAT CELL CARCINOMA) was “active; positive”; the carcinogen call (Species: MOUSE, Strain/Sex: ICR/FEMALE, Route: DERMAL, Tumor Site: Type of Lesion: INTEGUMENTARY SYSTEM (SKIN): PAPILLOMA, SQUAMOUS CELL CARCINOMA) was “active; positive”; the carcinogen call (Species: MOUSE, Strain/Sex: ICR/MALE,FEMALE, Route: SUBCUTANEOUS, Dose: 12.5 µL/KG IN PEANUT OIL ONCE, Tumor Site: Type of Lesion: LUNG: ADENOMA) was “active; positive”; the carcinogen call (Species: MOUSE, Strain/Sex: ICR/MALE, Route: INHALATION, Dose: 0, 10, 100 PPB 6 HR/D, 5 D/WK FOR 6 MO (STUDY DURATION: 24 MO), Dose: 0, 10, 100 PPB 6 HR/D, 5 D/WK FOR 6 MO (STUDY DURATION: 24 MO), Tumor Site: Type of Lesion: LUNG: ADENOMA OR ADENOCARCINOMA) is “active; positive”; the carcinogen call (Species: MOUSE, Strain/Sex: STRAIN-A, Route: INHALATION, Dose: 0.005 MG/L 6 HR/D, 5 D/WK FOR A TOTAL OF 82 D OVER 27 WK, Tumor Site: Type of Lesion: LUNG: ADENOMA) was “active; positive”; the carcinogen call (Species: RAT, Strain/Sex: SPRAGUE-DAWLEY/FEMALE, Route: SUBCUTANEOUS, Dose: 3 MG IN 0.1 ML NUJOL 1/WK FOR 100 D THEN 1 MG 1/WK OR 3/MO FOR 200 D, Tumor Site: Type of Lesion: INJECTION SITE: FIBROSARCOMA) was “active; positive”. Further, the carcinogen call was “active; positive” (Species: RAT, Strain/Sex: SPRAGUE-DAWLEY/MALE, Route: INHALATION, Dose: 0, 1, 10, 100 PPB 6 HR/D, 5 D/WK FOR 6 MO (STUDY DURATION: 19-28 MO), Dose: 0, 1, 10, 100 PPB 6 HR/D, 5 D/WK FOR 6 MO (STUDY DURATION: 19-28 MO), Tumor Site: Type of Lesion: NASAL CAVITY: ESTHESIONEUROEPITHELIOMA) and “active; positive” (Species: RAT, Strain/Sex: SPRAGUE-DAWLEY, Route: INHALATION, Dose: 0.5 MG/M3 FOR 101 EXPOSURES, Tumor Site: Type of Lesion: LUNG: SQUAMOUS CELL CARCINOMA, NASAL CAVITY: ESTHESIONEUROEPITHELIOMA).

As to `CCSCC[C@H](N)C(=O)O`, the carcinogen call is, setting by setting: (Species: RAT, Strain/Sex: SPRAGUE-DAWLEY/MALE,FEMALE, Route: ORAL, Dose: 0.25% IN DIET FOR 38 WK (AVE), Tumor Site: Type of Lesion: LIVER: CARCINOMA) “active; positive”; (Species: RAT, Strain/Sex: SPRAGUE-DAWLEY/MALE, Route: ORAL, Dose: 0, 0.05% IN CHOLINE-FREE DIET FOR 12 MO (STUDY DURATION: 12 MO), Tumor Site: Type of Lesion: LIVER: HEPATOCELLULAR CARCINOMA) “active; positive”; (Species: RAT, Strain/Sex: SPRAGUE-DAWLEY/MALE, Route: ORAL, Dose: 0, 0.1% IN CHOLINE-FREE DIET FOR 12 MO (STUDY DURATION: 12 MO)) “inactive; negative”; (Species: RAT, Strain/Sex: STRAIN-CD/MALE, Route: ORAL, Dose: 0.2% IN NONTOXIC PEANUT MEAL DIET FOR 380 D, Tumor Site: Type of Lesion: LIVER) “active; positive”.

For `Cc1ncc([N+](=O)[O-])n1CCO`, the carcinogen call was “active; positive” (Species: MOUSE, Route: ORAL, Tumor Site: Type of Lesion: LUNG, LYMPHATIC SYSTEM: LYMPHOMA (NOS)) and “active; positive” (Species: RAT, Route: ORAL, Tumor Site: Type of Lesion: MAMMARY GLAND).

In the case of `FC(Cl)(Cl)Cl`, the carcinogen call (Species: MOUSE, Strain/Sex: B6C3F1/FEMALE, Route: GAVAGE, Dose: 0, 1962, 3925 MG/KG, TWA, Dose: 0, 1962, 3925 MG/KG, TWA) was “inactive; negative”; the carcinogen call (Species: MOUSE, Strain/Sex: B6C3F1/MALE, Route: GAVAGE, Dose: 0, 1962, 3925 MG/KG, TWA, Dose: 0, 1962, 3925 MG/KG, TWA) is “inactive; negative”; the carcinogen call (Species: MOUSE, Strain/Sex: SWISS/FEMALE, Route: INHALATION, Dose: 0, 1000, 5000 PPM 4 HR/D 5 D/WK FOR 78 WK (STUDY DURATION: LIFETIME), Dose: 0, 1000, 5000 PPM 4 HR/D 5 D/WK FOR 78 WK (STUDY DURATION: LIFETIME)) is “inactive; negative”; the carcinogen call (Species: MOUSE, Strain/Sex: SWISS/MALE, Route: INHALATION, Dose: 0, 1000, 5000 PPM 4 HR/D 5 D/WK FOR 78 WK (STUDY DURATION: LIFETIME), Dose: 0, 1000, 5000 PPM 4 HR/D 5 D/WK FOR 78 WK (STUDY DURATION: LIFETIME)) is “inactive; negative”; the carcinogen call (Species: RAT, Strain/Sex: SPRAGUE-DAWLEY/FEMALE, Route: INHALATION, Dose: 0, 1000, 5000 PPM 4 HR/D 5 D/WK FOR 104 WK (STUDY DURATION: LIFETIME), Dose: 0, 1000, 5000 PPM 4 HR/D 5 D/WK FOR 104 WK (STUDY DURATION: LIFETIME)) was “inactive; negative”; the carcinogen call (Species: RAT, Strain/Sex: SPRAGUE-DAWLEY/FEMALE, Route: INHALATION, Dose: 0, 1000, 5000 PPM IN AIR 4 HR/D 5 D/WK FOR 104 WK (STUDY DURATION: LIFETIME), Dose: 0, 1000, 5000 PPM IN AIR 4 HR/D 5 D/WK FOR 104 WK (STUDY DURATION: LIFETIME), Tumor Site: Type of Lesion: [BRAIN WAS ONLY SITE EVALUATED]) was “inactive; negative”. In addition, the carcinogen call (Species: RAT, Strain/Sex: SPRAGUE-DAWLEY/MALE, Route: INHALATION, Dose: 0, 1000, 5000 PPM 4 HR/D 5 D/WK FOR 104 WK (STUDY DURATION: LIFETIME), Dose: 0, 1000, 5000 PPM 4 HR/D 5 D/WK FOR 104 WK (STUDY DURATION: LIFETIME)) was “inactive; negative” and the carcinogen call (Species: RAT, Strain/Sex: SPRAGUE-DAWLEY/MALE, Route: INHALATION, Dose: 0, 1000, 5000 PPM IN AIR 4 HR/D 5 D/WK FOR 104 WK (STUDY DURATION: LIFETIME), Dose: 0, 1000, 5000 PPM IN AIR 4 HR/D 5 D/WK FOR 104 WK (STUDY DURATION: LIFETIME), Tumor Site: Type of Lesion: [BRAIN WAS ONLY SITE EVALUATED]) is “inactive; negative”.

`O=NN(CCCC(F)(F)F)CCCC(F)(F)F`: where the note is “Species: RAT, Strain/Sex: SPRAGUE-DAWLEY/MALE,FEMALE, Route: GAVAGE, Dose: 1.5, 7.5% IN VEGETABLE OIL 2/WK FOR UP TO 32 WK, Tumor Site: Type of Lesion: LIVER: HEPATOCELLULAR CARCINOMA, LUNG: SQUAMOUS CELL CARCINOMA, ADENOCARCINOMA”, the carcinogen call was “active; positive”.
